Experimental data taken from patent US20120093822A1, “DOPAMINE D2 RECEPTOR-DISC1 INTERACTION, COMPOSITIONS AND METHODS FOR MODULATING SAME” (Centre Forr Addiction And Mental Health, priority 2009, published 2012).
Entries after “also recorded” stand apart in the source; their conditions may differ. Like-named read-outs stand apart in the source and are kept apart here. Where no end group is shown, it is not given here.

How the values were obtained:
[1] = 100 Russian patients with schizophrenia; cited from earlier work
D2-DISC1 interaction [2] = test: Apomorphine-induced disruption of pre-pulse inhibition (PPI) of the acoustic startle reflex in rats; assay type: in vivo, rat; details: for Effect on apomorphine-induced disruption of PPI / Effect on basal PPI (degree of PPI without apomorphine): rats; for Effect on apomorphine-induced disruption of PPI: apomorphine 0.3 mg/kg SC, peptide ICV (1 mM, 4 μl; 40 nmol), n=5 per group; for Effect on basal PPI (degree of PPI without apomorphine): peptide ICV
Chain of D2-DISC1 interaction (P61169 whole entry, one chain of several): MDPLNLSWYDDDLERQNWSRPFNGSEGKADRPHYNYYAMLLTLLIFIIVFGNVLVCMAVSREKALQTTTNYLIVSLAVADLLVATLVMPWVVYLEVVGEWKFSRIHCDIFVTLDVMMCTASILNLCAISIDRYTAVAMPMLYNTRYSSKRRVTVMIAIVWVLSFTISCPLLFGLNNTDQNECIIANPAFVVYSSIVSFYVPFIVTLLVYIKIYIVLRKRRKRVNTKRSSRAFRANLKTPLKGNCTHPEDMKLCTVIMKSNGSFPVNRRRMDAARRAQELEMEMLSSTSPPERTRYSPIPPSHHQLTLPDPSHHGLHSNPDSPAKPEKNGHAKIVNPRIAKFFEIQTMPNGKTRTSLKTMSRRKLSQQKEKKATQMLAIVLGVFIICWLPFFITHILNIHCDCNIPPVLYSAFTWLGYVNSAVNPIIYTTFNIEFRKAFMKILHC
Excerpt: PPI of the acoustic startle reflex is a sensorimotor gating process known to be deficient in a number of neurologic and psychiatric conditions including, but not limited to schizophrenia, Huntington's disease, Tourette's syndrome, and obsessive compulsive disorder (OCD).

GSK-3α/β phosphorylation = test: Western blot of phosphorylated GSK-3α/β (Ser-21/9) in transfected HEK-293T cells; assay type: cell-based
Method: (A) Western blot analysis of phosphorylated GSK-3α/β levels in extract prepared from transfected HEK293T cells in the presence or absence of DA. Alpha-tubulin was used as loading controls. (B) Densitometric analysis. Data are analyzed by t-test. (C) Cyclic AMP analysis in transfected HEK293T cells in the presence or absence of Foskolin and Quinpirole. Data are analyzed by one-way ANOVA. Data are means±SEM. Numbers of samples per group (n) are indicated. CTRL: Control; DA: Dopamine.
Alpha-tubulin was used as loading controls. CTRL: Control; DA: Dopamine.
Currently, all studies related to D2R-mediated Akt/GSK-3 signaling were carried out in brain tissue, where the expression of D2R and DISC1 was confirmed (11,89,99). At least to our knowledge, there are no studies of D2R-mediated Akt/GSK-3 signaling in HEK-293T cells. Furthermore, there is no evidence indicating the existence of endogenous DISC1 in HEK-293T cells. […] The intensity of phosphor-GSK-3α Ser-21 and […] binding was quantified by densitometry (software: AIS Imaging Research Inc) (FIG. 1B). […] acted as a loading control in this experiment. […]

D2R = D2R (Homo sapiens, UniProt P14416); details: cited from earlier work
Chain of D2R (P14416 whole entry, the tested form may be a part): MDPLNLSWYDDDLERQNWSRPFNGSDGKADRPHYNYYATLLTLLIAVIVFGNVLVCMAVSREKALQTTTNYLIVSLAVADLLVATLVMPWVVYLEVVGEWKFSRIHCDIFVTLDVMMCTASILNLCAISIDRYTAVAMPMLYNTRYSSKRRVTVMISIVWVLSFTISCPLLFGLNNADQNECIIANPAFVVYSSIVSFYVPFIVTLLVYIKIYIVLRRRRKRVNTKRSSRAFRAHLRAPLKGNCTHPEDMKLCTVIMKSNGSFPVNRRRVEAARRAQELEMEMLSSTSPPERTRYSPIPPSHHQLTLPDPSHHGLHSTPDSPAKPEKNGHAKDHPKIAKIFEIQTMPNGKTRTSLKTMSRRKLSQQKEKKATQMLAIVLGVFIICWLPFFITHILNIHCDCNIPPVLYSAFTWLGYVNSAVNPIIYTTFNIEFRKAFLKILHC

DISC1 = target: T1, DISC1 (Rattus norvegicus, UniProt Q810H6); test: Affinity purification (pull-down) of DISC1 from solubilized striatal tissue by GST fusion proteins of D2R fragments; assay type: binding; details: GST fusion protein
T1 construct: from tissue; host or cells: rat striatum, solubilized
T1 sequence (Q810H6 1-846): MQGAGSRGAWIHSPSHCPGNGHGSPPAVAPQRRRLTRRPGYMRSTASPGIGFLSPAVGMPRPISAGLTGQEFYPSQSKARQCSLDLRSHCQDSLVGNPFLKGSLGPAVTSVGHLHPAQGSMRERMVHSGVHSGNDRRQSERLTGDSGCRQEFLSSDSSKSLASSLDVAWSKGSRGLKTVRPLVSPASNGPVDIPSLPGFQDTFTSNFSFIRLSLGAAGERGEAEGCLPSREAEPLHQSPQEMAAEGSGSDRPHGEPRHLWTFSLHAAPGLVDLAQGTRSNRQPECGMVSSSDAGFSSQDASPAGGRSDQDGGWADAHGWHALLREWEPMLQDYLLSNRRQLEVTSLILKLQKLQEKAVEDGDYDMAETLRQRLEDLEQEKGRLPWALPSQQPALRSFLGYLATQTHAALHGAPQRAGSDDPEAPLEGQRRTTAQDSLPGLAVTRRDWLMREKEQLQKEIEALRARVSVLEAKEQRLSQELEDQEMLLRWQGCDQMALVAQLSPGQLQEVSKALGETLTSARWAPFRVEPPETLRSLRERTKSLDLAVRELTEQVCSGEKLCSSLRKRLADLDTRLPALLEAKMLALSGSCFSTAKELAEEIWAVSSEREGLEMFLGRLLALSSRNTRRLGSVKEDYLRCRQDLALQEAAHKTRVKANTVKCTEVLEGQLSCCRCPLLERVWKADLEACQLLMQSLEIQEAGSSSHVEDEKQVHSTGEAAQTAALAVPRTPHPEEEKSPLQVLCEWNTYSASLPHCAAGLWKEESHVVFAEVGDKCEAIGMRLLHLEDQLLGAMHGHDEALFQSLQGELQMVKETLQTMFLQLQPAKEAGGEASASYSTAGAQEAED
Excerpt: (A) Co-immunoprecipitation of DISC1 by D2 antibody in rat striatal tissue.
This method uses GST fusion proteins encoding the fragments of a test protein to affinity purify other proteins that may form complexes with the test protein in tissue from a specific brain region. Since DISC1 is an intracellular protein, we made GST-fusion proteins encoding two intracellular regions of D2R: the carboxyl tail (CT) of D2R (D2CT: T428-C443) and the third intracellular loop ([…]) of D2R (D2IL3: K211-Q373). Many dopamine receptor interacting proteins have been identified that interact with either the CT or the IL3 region of dopamine receptors (94). […] GST fusion proteins encoding these two fragments were made and used in the affinity purification experiment. […] Thus, we concluded that D2IL3-1-1 (SEQ ID NO:1) comprises the site for D2-DISC1 interaction.

DISC1CT = test: In vitro binding assay with [35S]-DISC1CT probe; details: glutathione beads with GST-fusion protein, autoradiography
Method: (§1) To construct GST-fusion proteins encoding truncated D2113, cDNA fragments were amplified by PCR with specific primers. All 5′ and 3′ oligonucleotides incorporated BamH1 site (GGATCC) and Xho1 sites (CTCGAG), respectively, to facilitate subcloning into vector pGEX-4T3 (for GST-fusion protein construction). GST-fusion proteins were prepared from bacterial lysates as described by the manufacturer (Amersham). To confirm appropriate splice fusion and the absence of spurious PCR generated nucleotide errors, all constructs were resequenced. For in vitro binding assays, the probes were made with DISC1-NT or DISC1-CT subcloned into mammalian expression vector pCDNA3 using TNT® T7 Quick Coupled Transcription/Translation System (Promega, Madison, Wis.) and [35S] methionine (PerkinElmer, Waltham, Mass.). Glutathione beads carrying 20 μg GST-fusion proteins of D2IL3 or GST alone were incubated at room temperature for 1 hour with [35S] methionine-labeled […] probe, respectively. The beads were then washed six times with PBS containing 0.1-0.5% (V/V) Triton X-100 and eluted with 10 mM glutathione elution buffer. Eluates were separated by SDS-PAGE and visualized by autoradiography using BioMax (Kodak) film.

DISC1NT = test: In vitro binding assay with [35S]-DISC1NT probe; details: glutathione beads with GST-fusion protein, autoradiography
Chain of DISC1NT (Q9NRI5 1-75 limits assumed): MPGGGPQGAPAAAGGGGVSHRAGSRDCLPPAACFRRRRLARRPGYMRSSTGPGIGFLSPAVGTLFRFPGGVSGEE
Method: as §1

D2-DISC1 interaction [3] = test: Co-immunoprecipitation of D2-DISC1 after ICV administration of peptide; assay type: in vivo, rat; details: administered via ICV; data not shown
Excerpt: PPI of the acoustic startle reflex is a sensorimotor gating process known to be deficient in a number of neurologic and psychiatric conditions including, but not limited to schizophrenia, Huntington's disease, Tourette's syndrome, and obsessive compulsive disorder (OCD). PPI can be disrupted by the dopamine DI/D2R agonist apomorphine in rats (111). […] Accordingly, if D2-DISC1 interaction plays an important role in the D2R-mediated reduction of phosphorylation of GSK-3α/β, disruption of the D2R-DISC1 interaction should reverse D2R-associated behaviours such as PPI deficit. […] These effects could not be explained in terms of altered startle reactivity (data not shown). The ability of the TAT-D2pep (administered via ICV) to disrupt the D2-DISC1 interaction was confirmed in co-immunoprecipitation experiments (data not shown).

[4] = target: T2, Disrupted-in-schizophrenia-1 (DISC1), endogenous, in solubilized rat striatal tissue (rat, UniProt Q810H6 1-846, limits assumed); test: co-immunoprecipitation from rat striatal tissue with D1R antibody (data not shown)
T2 construct: Endogenous protein in a tissue extract
T2 sequence (looked up): T1 sequence (Q810H6 1-846)

With N[C@@]1(C(=O)O)CS(=O)(=O)[C@H]2[C@H](C(=O)O)[C@H]21 [LY404,039] as the molecule, how does the “Clinical effectiveness in schizophrenia” value [1] read?
The value was “significantly effective”.

For CN1CCc2cccc3c2[C@H]1Cc1ccc(O)c(O)c1-3 [apomorphine], which “Effect on PPI in comparison with saline/vehicle” value (D2-DISC1 interaction [2]; rat, in vivo) is on record?
Its value is “reduced levels of PPI at all 3 prepulse intensities; also recorded: significantly disrupted PPI”.

What does the source list for NCCc1ccc(O)c(O)c1 [dopamine]?
Phosphorylation of GSK3α/β (GSK-3α/β phosphorylation; HEK-293T cells co-expressing D2R and DISC1, 10 μM dopamine, 30 min): significantly decreased; Phosphorylation of GSK3α/β (GSK-3α/β phosphorylation; HEK-293T cells expressing D2R with pcDNA3, dopamine): failed to alter

Which “Antagonism of β-arrestin 2 recruitment to D2R” value (from here on “Antagonism”) (D2R; induced by activation of D2R) does the source give for OCCOCCN1CCN(C2=Nc3ccccc3Sc3ccccc32)CC1 [quetiapine] here?
The value was “potently antagonize”.

For Cc1nc2n(c(=O)c1CCN1CCC(c3noc4cc(F)ccc34)CC1)CCCC2 [risperidone], which “Antagonism” value (D2R) is on record?
The value was “potently antagonize”.

With O=C1Cc2cc(CCN3CCN(c4nsc5ccccc45)CC3)c(Cl)cc2N1 [ziprasidone] as the molecule, how does the “Antagonism” value (D2R; induced by activation of D2R) read?
The value was “potently antagonize”.

Which “Pull-down (precipitation) of DISC1” value (DISC1) does the source give for “GST-D2CT: GST-fusion protein of the carboxyl tail of D2R (D2CT: T428-C443) (TFNIEFRKAFLKILHC; also: GST fusion; UniProt P14416 428-443, looked up, fragment)” here?
The value was “not”.

What does the source list for “GST-D2IL3-1-1: GST fusion of D2IL3-1-1: K211-T225, KIYIVLRRRRKRVNT (SEQ ID NO:1) (also: GST fusion; UniProt P14416 211-225, looked up, fragment)”?
Binding of [35S]-DISC1CT probe (DISC1CT): not; Pull-down (precipitation) of DISC1 (DISC1): Affinity pull-down of the DISC1; also recorded: recognizes and precipitates DISC1; Binding of [35S]-DISC1NT probe (DISC1NT): bound

For “GST-D2IL3-1-2: GST fusion of D2IL3-1-2: K226-L240 (KRSSRAFRAHLRAPL; also: GST fusion; UniProt P14416 226-240, looked up, fragment)”, which “Pull-down (precipitation) of DISC1” value (DISC1) is on record?
Its value is “failed to”.

Which “Pull-down (precipitation) of DISC1” value (DISC1) does the source give for “GST-D2IL3-1: GST fusion protein of D2IL3-1: K211-V270 (KIYIVLRRRRKRVNTKRSSRAFRAHLRAPLKGNCTHPEDMKLCTVIMKSNGSFPVNRRRV; cysteine pairing not given here; also: GST fusion; UniProt P14416 211-270, looked up, fragment)” here?
Its value is “Affinity pull-down of the DISC1; also recorded: recognizes and precipitates DISC1”.

What does the source list for “TAT-D2pep-sc: scrambled peptide YGRKKRRQRRRVLRKTRIRRYKIRNV (SEQ ID NO:3) (TAT-D2 scrambled fusion protein)”?
Effect on apomorphine-induced disruption of PPI (D2-DISC1 interaction [2]): did not affect the response to apomorphine; Effect on apomorphine-induced disruption of PPI (D2-DISC1 interaction [2]; listed as TAT-D2pep-scramb): no effect; Effect on basal PPI (degree of PPI without apomorphine) (D2-DISC1 interaction [2]): did not affect

Which results are given for “TAT-D2pep: TAT-D2 pep [K211-T225]: YGRKKRRQRRRKIYIVLRRRRKRVNT (SEQ ID NO:2) (TAT-[K211-T225]D2R fusion protein)”?
Ability to disrupt the D2-DISC1 interaction (co-immunoprecipitation) (D2-DISC1 interaction [3]): confirmed; Effect on apomorphine-induced disruption of PPI (D2-DISC1 interaction [2]): completely reversed the effects of apomorphine; also recorded: significantly reversed the disruption of PPI; Effect on basal PPI (degree of PPI without apomorphine) (D2-DISC1 interaction [2]): without altering the degree of PPI

B1: Dopamine D1 receptor (D1R), endogenous, in rat striatal tissue (receptor, UniProt P18901 1-446, looked up)
chain: MAPNTSTMDEAGLPAERDFSFRILTACFLSLLILSTLLGNTLVCAAVIRFRHLRSKVTNFFVISLAVSDLLVAVLVMPWKAVAEIAGFWPLGPFCNIWVAFDIMCSTASILNLCVISVDRYWAISSPFQYERKMTPKAAFILISVAWTLSVLISFIPVQLSWHKAKPTWPLDGNFTSLEDTEDDNCDTRLSRTYAISSSLISFYIPVAIMIVTYTSIYRIAQKQIRRISALERAAVHAKNCQTTAGNGNPVECAQSESSFKMSFKRETKVLKTLSVIMGVFVCCWLPFFISNCMVPFCGSEETQPFCIDSITFDVFVWFGWANSSLNPIIYAFNADFQKAFSTLLGCYRLCPTTNNAIETVSINNNGAVVFSSHHEPRGSISKDCNLVYLIPHAVGSSEDLKKEEAGGIAKPLEKLSPALSVILDYDTDVSLEKIQPVTHSGQHST
Does B1 bind [4]?
Result: no binding
